{"source": "patent US20040235027A1", "about": "“Preparation and application of ligand-biopolymer conjugates” (Regent of the University of California, priority 2003, published 2004)", "assay_type_in_all_cases": "binding", "key": {"[1]": {"test_system": "murine anti-PDC monoclonal antibody 2H4", "test": "xenobiotic-peptide-agarose microarray, reactivity of mAb 2H4", "conditions": "xenobiotic or lipoic acid coupled to PDC peptide-agarose", "text": "Synthesis of mimeotopes and coupling with peptide-agarose conjugate. Carboxylic acid derivatives of twenty-three xenobiotic compounds were used in this study. Compounds 1-19 were synthesized as described in Long, S. A. et al. J. Immunol. 2001, 167:2956 which is herein incorporated by reference in its entirety. The carboxylic acid derivatives are then reacted with NHS to form the corresponding NHS esters. These 23 compounds, in addition to lipoic acid with NHS ester, were coupled to the lysine residue on the PDC-E2 peptide-agarose conjugate as follows. Briefly, 0.4 mg of the PDC-E2 peptide-agarose conjugate and 10 μmol of each of the NHS esters were mixed in 40 μl of DMSO. Mixtures were incubated at room temperature for 2 hours. To ensure complete coupling, a quantitative ninhydrin test at 570 nm was performed.\n(§1) Preparation of microarray and analysis of immunoreactivity. Xenobiotic compounds-peptide-agarose mixture were diluted (0.1%) in 0.1 M Na2CO3/NaHCO3 buffer (p)H 9.0), and transferred to 96 well plates. Thereafter mixtures were spotted onto glass slides (Mercedes Medical, Florida) using the Affymetrix 417 Microarrayer (Affymetrix, Santa Clara, Calif.). Each sample was spotted in triplicate, with a spot size of 150 μm in diameter. Spotted microarrays were stored at 4° C. until use. Before use, microarrays were blocked with 3% non-fat dry milk in PBS buffer for 1 hour at room temperature, and individual slides were thereafter incubated with diluted antibody samples (rabbit sera 1:250, murine anti-PDC monoclonal antibody 1:1) in 1 ml of blocking buffer (3% non-fat dry milk in PBS with 0.05% tween-20) (PBST) for 1 hour at room temperature. After thorough washes with PBST, 1 ml of the Cy3 conjugated secondary antibody (1 μg/ml) (Zymed Laboratories Inc. San Francisco, Calif.) in blocking buffer was added to each slide and incubated at room temperature for 30 min. Subsequently slides were washed in PBST for 10 min and in water for 15 sec. […] Mixtures of xenobiotics and agarose were also spotted and analyzed as controls. […]"}, "rabbit sera IgG [2]": {"test_system": "rabbit sera IgG", "test": "microarray assay of rabbit sera IgG reactivity to small molecule-peptide-agarose conjugates", "conditions": "sera (n=5) one month post-immunization, serially diluted; dilution of 1:6750 or lower; on PDC-E2 peptide", "description": "as §1, with “min.” for “min. Subsequently slides were washed in PBST for 10 min and in water for 15 sec.”\nComparison between ELISA and microarray assay. Rabbit sera (n=5) at one month post-immunization were serially diluted (1:250, 1:750, 1:2250, 1:6750 and 1:20250) and IgG reactivity to small molecule-peptide-agarose conjugates were determined by both the ELISA and microarray assay. […] Likewise, IgG reactivity of rabbit sera at 0, 1, 6, 12 and 22 months post-immunization against recombinant human PDC-E2 protein (see Leung, P. S. et al. J. Immunol. 2003, 170:5326) and KLH (Sigma, St. Louis, Mo.) was determined at 1:100 sera dilution by standard ELISA.\nValidation of peptide microarray assay. […] Rabbit sera (n=5) at one month post-immunization with human recombinant PDC-E2 were serially diluted and their IgG reactivity against 6-bromohexanoate, compound 9, lipoic acid on PDC-E2 peptide and non-lipoylated native PDC-E2 peptide were determined by both ELISA and microarray assay (FIG. 13). […]"}, "rabbit sera IgG [3]": {"test_system": "rabbit sera IgG", "test": "ELISA of rabbit sera IgG reactivity to small molecule-peptide-agarose conjugates", "conditions": "sera (n=5) one month post-immunization, serially diluted; dilution of 1:6750 or lower; on PDC-E2 peptide", "description": "Comparison between ELISA and microarray assay. Rabbit sera (n=5) at one month post-immunization were serially diluted (1:250, 1:750, 1:2250, 1:6750 and 1:20250) and IgG reactivity to small molecule-peptide-agarose conjugates were determined by both the ELISA and microarray assay. Briefly, ELISA plates were coated with 50 μl of each individual xenobiotic compounds-peptide-agarose mixture in DMSO (1 mg/ml) for 2 hours at room temperature, then antigens were removed and plates dried overnight at room temperature. Dried ELISA plates were thereafter blocked with 3% non-fat dry milk in PBS and incubated with serially diluted rabbit sera for 1 hour at room temperature. After washing, the plates were incubated with HRP conjugated mouse anti-rabbit IgG (Zymed, San Francisco, Calif.) antibodies for 30 min at room temperature, washed and incubated with 2,2′-azino-bis(3-ethylbenzthiazoline-6-sulfonic acid) containing hydrogen peroxide (Kirkegaard & Perry Laboratories, Inc, MD). Likewise, IgG reactivity of rabbit sera at 0, 1, 6, 12 and 22 months post-immunization against recombinant human PDC-E2 protein (see Leung, P. S. et al. J. Immunol. 2003, 170:5326) and KLH (Sigma, St. Louis, Mo.) was determined at 1:100 sera dilution by standard ELISA.\nValidation of peptide microarray assay. To validate the microarray assay, data obtained using the microarray and ELISA were compared. Rabbit sera (n=5) at one month post-immunization with human recombinant PDC-E2 were serially diluted and their IgG reactivity against 6-bromohexanoate, compound 9, lipoic acid on PDC-E2 peptide and non-lipoylated native PDC-E2 peptide were determined by both ELISA and microarray assay (FIG. 13). […] To validate the sensitivity of the microarray, four different concentrations (0.1%, 0.03%, 0.01% and 0.004%) of HA peptide ([…]) were spotted. Individual arrays were incubated with murine monoclonal anti-HA antibody or normal murine IgG followed by secondary antibody (goat anti-murine IgG) conjugated to Cy3."}, "[4]": {"test_system": "murine monoclonal anti-HA antibody", "test": "HA peptide microarray sensitivity validation with anti-HA monoclonal antibody"}}}
{"compound": "O=C(O)CCCC[C@@H]1CCSS1", "note": "(racemic) [lipoic acid]", "values": [{"measurement": "reactivity of mAb 2H4", "setting": "[1]", "result": "bound strongly"}, {"measurement": "rabbit sera IgG reactivity, microarray assay", "setting": "rabbit sera IgG [2]", "result": "dilution dependent response"}, {"measurement": "rabbit sera IgG reactivity, ELISA", "setting": "rabbit sera IgG [3]", "result": "dilution dependent response"}]}
{"compound": "O=C(O)CCCCCBr", "note": "[6-bromohexanoate]", "values": [{"measurement": "reactivity of mAb 2H4", "setting": "[1]", "result": "bound strongly"}, {"measurement": "rabbit sera IgG reactivity, microarray assay", "setting": "rabbit sera IgG [2]", "result": "dilution dependent response"}, {"measurement": "rabbit sera IgG reactivity, ELISA", "setting": "rabbit sera IgG [3]", "result": "dilution dependent response"}]}
{"compound": "DKATIGFEVQEE [non-lipoylated native PDC peptide, 12 mer PDC-E2 peptide on agarose, without xenobiotic or lipoic acid]", "values": [{"measurement": "reactivity of mAb 2H4", "setting": "[1]", "result": "Weak reactivity"}, {"measurement": "rabbit sera IgG reactivity, microarray assay", "setting": "rabbit sera IgG [2]", "result": "dilution dependent response"}, {"measurement": "rabbit sera IgG reactivity, ELISA", "setting": "rabbit sera IgG [3]", "result": "dilution dependent response"}]}
{"compound": "YPYDVPDYA [HA peptide]", "values": [{"measurement": "anti-HA antibody concentration giving dose dependent response", "setting": "[4]; HA peptide spotted at 0.1%, 0.03%, 0.01%", "result": "≥ 5", "unit": "ng/mL"}, {"measurement": "anti-HA antibody concentration required", "setting": "[4]; lowest concentration of HA (0.004%)", "result": "> 50", "unit": "ng/mL"}]}
